Where “and” joins values, the source holds several entries; their conditions need not be identical. Equal entries are not always repeated. Marks after values point to notes of the source that are not given here.
Assays:
[1] = DPPH free radical scavenging assay; conditions: 30 min, 517 nm, n = 3; for IC50: pure compounds
Description: The DPPH free radical scavenging activities of extracts and pure compounds from stem barks of W. ugandensis were tested according to previous studies with slight modifications. Firstly, 10 µL solutions of the samples, appropriately diluted with MeOH, were homogeneously mixed with 190 µL solution of DPPH (0.1 mM in MeOH) in a 96-well plate. Secondly, the mixtures were gently shaken and put at room temperature for 30 min in the darkness. Finally, the absorbance was recorded at 517 nm with multifunctional microplate reader. Trolox was used as positive control, and MeOH was used as blank control. Each of the samples and controls were tested in triplicate (n = 3). The antioxidant activities of DPPH were expressed as IC50 (concentration of samples caused 50% inhibition) and TEAC values. The TEAC values were calculated from the standard curve of Trolox and expressed as millimoles of Trolox equivalents per gram of sample (mmol TE/g). The inhibition of the DPPH radical was calculated according to the following formula:DPPH scavenging activity (%) = (1 − absorbance of sample/absorbance of blank control) × 100,(1) where DPPH scavenging activities (%) were plotted against the concentration of samples to obtain the IC50.

[2] = ABTS free radical scavenging assay; conditions: 30 min, 734 nm, n = 3; for IC50: pure compounds
Description: The ABTS free radical scavenging activities of extracts and pure compounds from stem barks of W. ugandensis were tested according to previous studies with slight modifications. ABTS^+ solution was prepared by mixing equal volumes of potassium persulfate (4.9 mM in H2O) and ABTS (7.0 mM in H2O) and then incubated for 12 h in the darkness. The prepared ABTS^+ solution was diluted with MeOH to ensure an absorbance value about 0.700 ± 0.005 at 734 nm. Firstly, 10 µL of appropriately diluted solution of samples was added to the 190 µL ABTS^+ solution in 96-well plate. Secondly, the mixtures were gently shaken and put at room temperature for 30 min in the darkness. Finally, the absorbance was recorded at 734 nm with multifunctional microplate reader. Trolox was used as positive control, and MeOH was used as blank control. Samples and controls were tested in triplicate (n = 3). The antioxidant activities of ABTS were expressed as IC50 and TEAC values. The inhibition of the ABTS radicals was calculated according to the following formula:ABTS scavenging activity (%) = (1 − absorbance of sample/absorbance of blank control) × 100,(2) where ABTS scavenging activities (%) were plotted against the concentration of samples to acquire the IC50.

[3] = Ferric reducing antioxidant power (FRAP) assay; conditions: 37 °C, 10 min, 593 nm, n = 3
Description: The ferric reducing antioxidant power assays on different extracts and pure compounds of stem barks from W. ugandensis were tested according to previous studies with slight modifications. Firstly, freshly prepared FRAP reagent (Fe^3+-TPTZ solution) was composed of FeCl3∙6H2O (20 mM in H2O), TPTZ (10 mM in 40 mM HCl), and acetate buffer (300 mM, pH = 3.6) at a ratio of 1:1:10 (v/v/v), then incubated at 37 °C after preparation, and used within 1–2 h. Secondly, 10 µL of appropriately diluted solution of samples was added to the 190 µL freshly prepared FRAP reagent in 96-well plate. Thirdly, the mixtures were gently shaken and put at 37 °C for 10 min. Finally, the absorbance was recorded at 593 nm with multifunctional microplate reader. Trolox was used as a positive control, and MeOH was used as blank control. Each of the samples and controls were tested in triplicate (n = 3). The antioxidant activities of FRAP were expressed as FRAP values and TEAC values. The FRAP values were calculated and expressed as millimoles of Fe^2+ equivalents per gram of sample (mmol Fe^2+/g) based on a calibration curve plotted using FeSO4∙7H2O as standard at a concentration ranging from 0.0185 to 1.5 mM.

xanthine oxidase (XOD) = experiment: Affinity ultrafiltration LC-MS/MS with XOD (relative binding affinity); conditions: peaks of WUE-A4, XOD 2 U, 37 °C 1 h, n = 3
Description: (§1) The experimental conditions were proposed according to previous relevant studies. Briefly, the optimized experiment was composed of three steps. Incubation was the first step, where 100 μL WUE-A4 (10.0 mg/mL), 10 µL SOD (2 U) or XOD (2 U), and 90 µL Tris-HCl (pH = 7.8) were mixed well in 1.5 mL EP tubes, and then incubated at 37 °C in the dark for 1 h. Meanwhile, the incubation operations of inactivated enzymes (inactivated enzymes were obtained by heating enzymes in a 99 °C water bath for 10 min) were the same as the active enzymes. Adsorption was the second step, where the incubated solutions were transferred to ultrafiltration tubes with 30 KDa (for SOD) or 10 KDa (for XOD) ultrafiltration membranes and then centrifuged at 10,000 rpm for 10 min at 25 °C. Simultaneously, components which had no binding affinity to enzymes were washed out. Immediately, 300 µL of Tris-HCl solution (pH = 7.8) was added to the ultrafiltration tubes and centrifuged at 10,000 rpm for 5 min at 25 °C to remove the potential unbound components. Desorption was the third step, where 300 µL of 90% (v/v) MeOH-H2O was added and incubated for 10 min at room temperature, and the mixed solutions were centrifuged at 10,000 rpm for another 10 min at 25 °C. After that, the desorption process was repeated two times to release those components with specific bindings to SOD or XOD from the enzyme-ligand complexes. Finally, those ultrafiltrates were dried and reconstituted in 50 µL MeOH for the HPLC-UV/ESI-MS/MS analysis.
(§2) HPLC-UV/ESI-MS/MS was carried out to characterize the components in WUE-A4 before and after ultrafiltration by using a Thermo Accela 600 series HPLC connected with a TSQ Quantum Access MAX mass spectrometer (Thermo Fisher Scientific, San Jose, CA, USA). A Waters Symmetry RP-C18 column (4.6 × 250 mm, 5 µm) was used to perform chromatographic analysis at 30 °C, and the mobile phase consisted of H2O with 0.1% formic acid (A) and ACN (B). The optimized HPLC elution procedures were as follows: 0–15 min, 17% B; 15–40 min, 17–30% B, 40–42 min: 30–56% B. The flow rate was 0.8 mL/min, the injection volume was 10 µL, and the HPLC-UV chromatograms were detected at a wavelength of 254 nm. The negative ion modes were applied to obtained ESI-MS/MS data. Moreover, the parameters of instrument were set as follows: the vaporizer temperature was 350 °C, the capillary temperature was 250 °C, the spray voltage was 3000 V, the cone voltage energy was 40 V, the collision energy was 10 V, the sheath gas pressure was 40 psi, the aux gas pressure was 10 psi, the drying gas flow rate was 6.0 L/min, and the mass range was set from 50 to 1100 (m/z) in the full-scan mode. Finally, the Thermo Xcalibur ChemStation (Thermo Fisher Scientific) was used for data acquisition and analysis.
(§3) For further evaluation of the affinity binding strength between the potential ligands and the target enzymes, the relative binding affinity (RBA) was employed to compare the variation of the correlated peak areas in the UF-HPLC-UV chromatograms before and after activation. The RBA formula is expressed as RBA = Aactive/Ainactivated, where the Aactive and Ainactivated represent the peak areas obtained from the WUE-A4 samples with activated and inactivated SOD or XOD, respectively.

[4] = system: superoxide dismutase (SOD); experiment: Affinity ultrafiltration LC-MS/MS with SOD (relative binding affinity); design: key: -: No binding affinity; conditions: peaks of WUE-A4, SOD 2 U, 37 °C 1 h, n = 3
Description: as §1, §2, §3

Compound	IC50 [1] [µM]	IC50 [2] [µM]	FRAP value [3]	UF-RBA XOD (relative binding affinity = Aactive/Ainactivated) (xanthine oxidase (XOD))	UF-RBA XOD (relative binding affinity = Aactive/Ainactivated) (xanthine oxidase (XOD); listed as peak 12)	UF-RBA SOD (relative binding affinity = Aactive/Ainactivated) [4]	DPPH IC50 ([1]; extracts/fractions)	ABTS IC50 ([2]; extracts/fractions)	UF-RBA SOD (relative binding affinity = Aactive/Ainactivated) ([4]; listed as peak 3)
1-(3,4-dihydroxy-5-methoxyphenyl)-1,2-dihydroxy-7,8-dihydroxy-N-[(4-hydroxyphenyl)-ethyl]-N′-[(4-hydroxyphenyl) -ethyl]-6-methoxynaphthalene-2,3-dicarboxamide [compound 12]	142 ± 36.1	1150 ± 630	1.1 ± 0.2 ^c mmol Fe^2+/g	1.7 ± 0.5 ^b,c	1.70	-			
Cc1c(C)c2c(c(C)c1O)CCC(C)(C(=O)O)O2 (stereo not shown) [Trolox, 6-Hydroxy-2,5,7,8-tetramethylchroman-2-carboxylic acid, reference compound]	36	22.4	16.212 ± 1.271 mmol Fe^2+/g and 16.2 ± 1.3 ^a mmol Fe^2+/g				9.0 ± 0.3 ^f µg/mL	5.9 ± 0.1 ^e µg/mL	
C[C@@H]1O[C@@H](O[C@@H]2[C@@H](O)[C@H](O)[C@@H](CO)O[C@H]2c2cc(-c3cc(=O)c4c(O)cc(O)cc4o3)ccc2O)[C@H](O)[C@H](O)[C@H]1O [compound 3, 2-[3-[2-O-(6-deoxy-α-L-mannopyranosyl)-β-D-glucopyranosyl]-4-hydroxyphenyl]-5,7-dihydroxy-4H-1-benzopyran-4-one]				1.0 ± 0.2 ^d		2.0 ± 0.1 ^a,b			1.99
O=C1OCC2OC(Oc3ccc(cc3)C(=O)OCC3OC(Oc4ccc1cc4)C(O)C(O)C3O)C(O)C(O)C2O [compound 5, 4-[(6′-O-β-D-allopyranosyl)-oxy]-hydroxy-benzoic acid cyclic dimeric inner ester]				1.2 ± 0.1 ^c,d		1.1 ± 0.1 ^e			

From PMC8001783, “New Lignanamides with Antioxidant and Anti-Inflammatory Activities Screened Out and Identified from Warburgia ugandensis Combining Affinity Ultrafiltration LC-MS with SOD and XOD Enzymes” (Antioxidants, 2021)
